{
  "source": "patent US7875587B2",
  "about": "“Peptide analogues of GIP for treatment of diabetes, insulin resistance and obesity” (UUTECH Limited, priority 2004, dated 2011)",
  "key": {"BRIN-BD11 cells": {"tested_on": "BRIN-BD11 cells", "experiment": "Acute tests for insulin secretion from BRIN-BD11 cells", "format": "cell-based", "details": "5.6 and 16.7 mM glucose, 10^-13 to 10^-8 M peptide", "description": "Culture of insulin secreting cells. BRIN-BD11 cells were cultured in sterile tissue culture flasks (Corning, Glass Works, UK) using RPMI-1640 tissue culture medium containing 10% (v/v) foetal calf serum, 1% (v/v) antibiotics (100 U/ml penicillin, 0.1 mg/ml streptomycin) and 11.1 mM glucose. The cells were maintained at 37° C. in an atmosphere of 5% CO2 and 95% air using a LEEC incubator (Laboratory Technical Engineering, Nottingham, UK).\nAcute tests for insulin secretion. Before experimentation, the cells were harvested from the surface of the tissue culture flasks with the aid of trypsin/EDTA (Gibco), seeded into 24-multiwell plates (Nunc, Roskilde, Denmark) at a density of 1.5×10^5 cells per well, and allowed to attach overnight at 37° C. Acute tests for insulin release were preceded by 40 minutes pre-incubation at 37° C. in 1.0 ml Krebs Ringer bicarbonate buffer (115 mM NaCl, 4.7 mM KCl, 1.28 mM CaCl2, 1.2 mM KH2PO4, 1.2 mM MgSO4, 10 mM NaHCO3, 5 g/l bovine serum albumin, pH 7.4) supplemented with 1.1 mM glucose. Test incubations were performed (n=12) at two glucose concentrations (5.6 mM and 16.7 mM) with a range of concentrations (10^−13 to 10^−8 M) of GIP or GIP analogues. After 20 minutes incubation, the buffer was removed from each well and aliquots (200 μl) were used for measurement of insulin by radioimmunoassay."}, "DPP IV": {"target": "T1, DPP IV (Sus scrofa, UniProt P22411)", "T1 construct": "purchased Sigma (Poole, Dorset, UK)", "experiment": "DPP IV degradation studies of fatty acid derivatised GIP analogues", "format": "in vitro ADME, porcine", "details": "pig, isolated enzyme dpp iv, pH 7.8, incubation with DPP IV, read-out: % Intact peptide remaining after time (hours)", "description": "DPP IV degradation studies. GIP and fatty acid derivatised GIP analogues were incubated at 37° C. with purified porcine dipeptidylpeptidase IV (5 mU in 50 mmol/l triethanolamine-HCl; pH 7.8) for 0, 2, 4, 8 and 24 hours (final peptide concentration 2 mmol/l). The reactions were subsequently terminated by addition of 10% (v/v) TFA/water and the reaction products separated using HPLC. […] HPLC peak area data were used to calculate % intact peptide remaining throughout the incubation."}, "ob/ob mice": {"tested_on": "ob/ob mice", "experiment": "Once daily i.p. (Pro3)GIP over 11 days in ob/ob mice (Example 5)", "format": "in vivo, mouse", "description": "Animals. Obese diabetic (ob/ob) mice derived from the colony maintained at Aston University, UK (Bailey, C. J., et al., 1982, Int. J. Obes. 6:11-21) were used at 12-16 weeks of age. Animals were age-matched, divided into groups and housed individually in an air-conditioned room at 22±2° C. with a 12 hour light: 12 hour dark cycle. Drinking water and a standard rodent maintenance diet (Trouw Nutrition, Cheshire, UK) were freely available. All animal experiments were carried out in accordance with the UK Animals (Scientific Procedures) Act 1986.\nExperimental protocols for ob/ob mouse studies. Initially, extended biological activity of (Pro^3)GIP was examined in 18-hour fasted ob/ob mice 4 hours after administration. Thereafter, over an 11-day period, mice received once daily i.p. injections (17:00 hours) of either saline vehicle (0.9% (w/v), NaCl) or (Pro^3)GIP (25 nmol/kg body wt). During a subsequent 9-day period, observations were continued following discontinuation of (Pro^3)GIP administration. Food intake and body weight were recorded daily whilst plasma glucose and insulin concentrations were monitored at intervals of 2-6 days. Whole blood for the measurement of glycated hemoglobin was taken on days 11 and 20. Intraperitoneal glucose tolerance (18 mmol/kg body wt), metabolic response to native GIP (25 nmol/kg body wt) and insulin sensitivity (50 U/kg body wt) tests were performed on days 11 and 20. Mice fasted for 18 hours were used to examine the metabolic response to 15 minutes feeding. In a separate series, pancreatic tissues were excised at the end of the 11-day treatment period or 9 days following discontinuation of (Pro^3)GIP and processed for immunohistochemistry or measurement of insulin following extraction with 5 ml/g of ice-cold acid ethanol (750 ml ethanol, 235 ml water, 15 ml concentrated HCl). Blood samples taken from the cut tip of the tail vein of conscious mice at the times indicated in the Figures were immediately centrifuged using a Beckman microcentrifuge (Beckman Instruments, UK) for 30 seconds at 13,000 g. The resulting plasma was then aliquoted into fresh Eppendorf tubes and stored at −20° C. prior to glucose and insulin determinations.\nBiochemical analysis. Plasma glucose was assayed by an automated glucose oxidase procedure (Stevens, J. F., 1971, Clin. Chem. Acta 32:199-201) using a Beckman Glucose Analyzer II (Beckman Instruments, Galway, Ireland). Plasma and pancreatic insulin were assayed by a modified dextran-coated charcoal radioimmunoassay (Flatt, P. R. et al., 1981, Diabetologia 20:573-577). Glycated hemoglobin was determined using cation-exchange columns (Sigma, Poole, Dorset, UK) with measurement of absorbance (415 nm) in wash and eluting buffer using a VersaMax Microplate Spectrophotometer (Molecular Devices, Wokingham, Berkshire, UK).\nImmunocytochemistry. Tissue fixed in 4% paraformaldehyde/PBS and embedded in paraffin was sectioned at 8 μm. After de-waxing, sections were incubated with blocking serum (Vector Laboratories, Calif., USA) prior to exposure to insulin antibody. Tissue samples were then incubated consecutively with secondary biotinylated universal, pan-specific antibody (Vector Laboratories, Calif., USA) and streptavidin/peroxidase preformed complex (Vector Laboratories, Calif., USA). Following washing, the stained pancreatic tissue was counterstained with hematoxylin (BDH Chemicals, Dorset, UK) and then plunged into acid methanol (500 ml methanol, 500 ml H2O and 2.5 ml concentrated HCl) prior to dehydration and mounting in Depex (BDH Chemicals, Dorset, UK). The stained slides were viewed under a microscope (Nikon Eclipse E2000, Diagnostic Instruments Incorporated, Michigan, USA) attached to a JVC camera Model KY-F55B (JVC, London, UK) and analyzed using Kromoscan imaging software (Kinetic Imaging Limited, Faversham, Kent, UK). […]"}, "[1]": {"details": "4 hours after 25 nmoles/kg, 18 h fasted, vs saline"}},
  "note": "No end group written: not given here.",
  "data": [
    {"compound": "CC[C@H](C)[C@H](NC(=O)[C@H](CO)NC(=O)[C@H](Cc1ccc(O)cc1)NC(=O)[C@H](CC(=O)O)NC(=O)[C@H](CO)NC(=O)[C@@H](NC(=O)[C@H](Cc1ccccc1)NC(=O)[C@@H](NC(=O)CNC(=O)[C@H](CCC(=O)O)NC(=O)[C@H](C)NC(=O)[C@@H](N)Cc1ccc(O)cc1)[C@@H](C)O)[C@@H](C)CC)C(=O)N[C@@H](C)C(=O)N[C@@H](CCSC)C(=O)N[C@@H](CC(=O)O)C(=O)N[C@@H](CCCCN)C(=O)N[C@H](C(=O)N[C@@H](Cc1c[nH]cn1)C(=O)N[C@@H](CCC(N)=O)C(=O)N[C@@H](CCC(N)=O)C(=O)N[C@@H](CC(=O)O)C(=O)N[C@@H](Cc1ccccc1)C(=O)N[C@H](C(=O)N[C@@H](CC(N)=O)C(=O)N[C@@H](Cc1c[nH]c2ccccc12)C(=O)N[C@@H](CC(C)C)C(=O)N[C@@H](CC(C)C)C(=O)N[C@@H](C)C(=O)N[C@@H](CCC(N)=O)C(=O)N[C@@H](CCCCN)C(=O)NCC(=O)N[C@@H](CCCCN)C(=O)N[C@@H](CCCCN)C(=O)N[C@@H](CC(N)=O)C(=O)N[C@@H](CC(=O)O)C(=O)N[C@@H](Cc1c[nH]c2ccccc12)C(=O)N[C@@H](CCCCN)C(=O)N[C@@H](Cc1c[nH]cn1)C(=O)N[C@@H](CC(N)=O)C(=O)N[C@H](C(=O)N[C@H](C(=O)N[C@@H](CCC(N)=O)C(=O)O)[C@@H](C)O)[C@@H](C)CC)C(C)C)[C@@H](C)CC", "note": "[GIP 1–42, reference compound]", "values": [
      {"measurement": "insulin secretion from BRIN-BD11 cells", "setting": "BRIN-BD11 cells", "value": "prominent and dose-related stimulation of insulin secretion"}
    ]},
    {"compound": "CCCCCCCCCCCCCCCC(=O)NCCCC[C@H](NC(=O)[C@H](Cc1c[nH]c2ccccc12)NC(=O)[C@H](CC(=O)O)NC(=O)[C@H](CC(N)=O)NC(=O)[C@H](CCCCN)NC(=O)[C@H](CCCCN)NC(=O)CNC(=O)[C@H](CCCCN)NC(=O)[C@H](CCC(N)=O)NC(=O)[C@H](C)NC(=O)[C@H](CC(C)C)NC(=O)[C@H](CC(C)C)NC(=O)[C@H](Cc1c[nH]c2ccccc12)NC(=O)[C@H](CC(N)=O)NC(=O)[C@@H](NC(=O)[C@H](Cc1ccccc1)NC(=O)[C@H](CC(=O)O)NC(=O)[C@H](CCC(N)=O)NC(=O)[C@H](CCC(N)=O)NC(=O)[C@H](Cc1c[nH]cn1)NC(=O)[C@@H](NC(=O)[C@H](CCCCN)NC(=O)[C@H](CC(=O)O)NC(=O)[C@H](CCSC)NC(=O)[C@H](C)NC(=O)[C@@H](NC(=O)[C@H](CO)NC(=O)[C@H](Cc1ccc(O)cc1)NC(=O)[C@H](CC(=O)O)NC(=O)[C@H](CO)NC(=O)[C@@H](NC(=O)[C@H](Cc1ccccc1)NC(=O)[C@@H](NC(=O)CNC(=O)[C@H](CCC(=O)O)NC(=O)[C@H](C)NC(=O)[C@H](Cc1ccc(O)cc1)NC(C)=O)[C@@H](C)O)[C@@H](C)CC)[C@@H](C)CC)[C@@H](C)CC)C(C)C)C(=O)N[C@@H](Cc1c[nH]cn1)C(=O)N[C@@H](CC(N)=O)C(=O)N[C@H](C(=O)N[C@H](C(=O)N[C@@H](CCC(N)=O)C(=O)O)[C@@H](C)O)[C@@H](C)CC", "note": "[N-AcGIP(LysPAL^37)]", "values": [
      {"measurement": "remaining at 2 h, 2 mmol/l", "setting": "DPP IV; 2 h", "value": 100, "unit": "%"},
      {"measurement": "remaining at 8 h, 2 mmol/l", "setting": "DPP IV; 8 h", "value": 100, "unit": "%"},
      {"measurement": "remaining at 24 h, 2 mmol/l", "setting": "DPP IV; 24 h", "value": 100, "unit": "%"}
    ]},
    {"compound": "YAPGTFISDYSIAMDKIHQQDFVNWLLAQKGKKNDWKHNITQ [(Pro^3)GIP]", "values": [
      {"measurement": "insulin secretion from BRIN-BD11 cells", "setting": "BRIN-BD11 cells", "value": "least potent analogues in terms of insulin release"},
      {"measurement": "reduction of non-fasting plasma glucose levels", "setting": "ob/ob mice; 25 nmol/kg/day i.p., 11 days, vs controls", "value": 1.6, "unit": "fold"},
      {"measurement": "reduction of overall glycemic excursion (AUC) to a glucose load", "setting": "ob/ob mice; 25 nmol/kg/day i.p., 11 days, vs controls (abstract of Example 5)", "value": 1.6, "unit": "fold"},
      {"measurement": "decrease of AUC insulin in response to native GIP with glucose", "setting": "ob/ob mice; [1]", "value": 25, "unit": "%"},
      {"measurement": "increase of AUC glucose in response to native GIP with glucose", "setting": "ob/ob mice; [1]", "value": 151, "unit": "%"},
      {"measurement": "glycated hemoglobin", "setting": "ob/ob mice; 9 days following cessation of daily injection", "value": "7.7±0.4", "unit": "%"},
      {"measurement": "average islet diameter", "setting": "ob/ob mice; 11 days treatment", "value": "markedly and significantly reduced"},
      {"measurement": "enhancement of insulin sensitivity", "setting": "ob/ob mice; 11 days treatment", "value": 1.6, "unit": "fold"},
      {"measurement": "islet number per pancreatic section", "setting": "ob/ob mice; 11 days treatment", "value": "No significant differences"},
      {"measurement": "lowering of overall plasma glucose response to feeding", "setting": "ob/ob mice; 11 days treatment", "value": 1.4, "unit": "fold"},
      {"measurement": "lowering of overall plasma insulin response to feeding", "setting": "ob/ob mice; 11 days treatment", "value": 1.5, "unit": "fold"},
      {"measurement": "pancreatic weight", "setting": "ob/ob mice; 11 days treatment", "value": "no effect"},
      {"measurement": "plasma insulin AUC 0-60 minutes after i.p. glucose", "setting": "ob/ob mice; 11 days treatment", "value": "significantly decreased"},
      {"measurement": "reduction of pancreatic insulin content", "setting": "ob/ob mice; 11 days treatment", "value": 1.3, "unit": "fold"},
      {"measurement": "reduction of plasma glucose AUC 0-60 minutes after i.p. glucose", "setting": "ob/ob mice; 11 days treatment, glucose 18 mmoles/kg, vs controls", "value": 2.1, "unit": "fold"},
      {"measurement": "hypoglycemic action of insulin (AUC and post injection values)", "setting": "ob/ob mice; 11 days treatment, insulin 50 U/kg i.p.", "value": "significantly (P<0.05) augmented"},
      {"measurement": "pancreatic insulin content", "setting": "ob/ob mice; 11 days treatment, vs controls", "value": "significantly (P<0.05) decreased"},
      {"measurement": "glycated hemoglobin", "setting": "ob/ob mice; after 11 days treatment", "value": "6.9±0.2", "unit": "%"},
      {"measurement": "glycated hemoglobin", "setting": "ob/ob mice; before treatment", "value": "8.0±0.3", "unit": "%"},
      {"measurement": "body weight", "setting": "ob/ob mice; daily 25 nmol/kg, 11 days", "value": "no effect"},
      {"measurement": "food intake", "setting": "ob/ob mice; daily 25 nmol/kg, 11 days", "value": "no effect"},
      {"measurement": "non-fasting plasma glucose", "setting": "ob/ob mice; day 11", "value": "significantly reduced"},
      {"measurement": "plasma insulin levels", "setting": "ob/ob mice; during or after the treatment period", "value": "No significant changes"},
      {"measurement": "adverse effects", "setting": "ob/ob mice; following administration to ob/ob mice", "value": "No adverse effects were observed"},
      {"measurement": "increase in the glucose-lowering action of exogenous insulin", "setting": "ob/ob mice; insulin sensitivity test after 11 days", "value": 57, "unit": "%"}
    ]}
  ]
}
